Measurements published in PMC9486805, “Identification of a Phage Display-Derived Peptide Interacting with the N-Terminal Region of Factor VII Activating Protease (FSAP) Enables Characterization of Zymogen Activation” (ACS Chemical Biology, 2022).
Entries after “also recorded” stand apart in the source; their conditions may differ.

Target: T1, pro-FSAP in human plasma (Homo sapiens, UniProt Q14520)
T1 construct: from tissue; host or cells: human hirudin or citrate plasma from healthy donors, diluted 1:12
Assay: Formation of FSAP–alpha2-antiplasmin complexes in plasma
Type: biochemical
Settings: hirudin plasma 1:12, 1 h at 37 °C; NNKC9/41 0–25 μM, histones 0–25 μg/mL; three donors (Fig 4C)
Method: Figure 4 Comparison of different methods to measure pro-FSAP activation in plasma: (A) hirudin plasma (1:12 dilution) was incubated with histones (0–25 μg/mL), NNKC9/41, or its Ser–Ser linear control (0–25 μM) and the fluorogenic substrate turnover (Ac–Ala–Lys–Nle–Arg–AMC) was monitored. (B) From the same experiment as in (A) after 1 h incubation at 37 °C, samples were captured on anti-FSAP coated wells and the conversion of added pro-uPA to active uPA was measured by determining the turnover of the chromogenic substrate PNAPEP1344 (25 μM). (C) From the same experiment as in (A) after 1 h incubation at 37 °C, samples were captured on anti-FSAP coated wells and α2-antiplasmin antibody was used to detect the formation of FSAP−α2-antiplasmin complexes. […] In (F), the samples with MA-FSAP-570 were not analyzed since this antibody would interfere in the sandwich ELISA. […]
Human citrate plasma (0.38% w/v) or hirudin plasma (25 μg/mL Lepirudin) was obtained from five healthy donors. […] Hydrolysis of the fluorogenic substrates was measured using a Synergy HI plate reader with excitation at 320 nm and emission at 460 nm at 37 °C for 60 min. The maximal velocity was calculated from the linear part of the progress curve. […]

T1 sequence (Q14520 24-560): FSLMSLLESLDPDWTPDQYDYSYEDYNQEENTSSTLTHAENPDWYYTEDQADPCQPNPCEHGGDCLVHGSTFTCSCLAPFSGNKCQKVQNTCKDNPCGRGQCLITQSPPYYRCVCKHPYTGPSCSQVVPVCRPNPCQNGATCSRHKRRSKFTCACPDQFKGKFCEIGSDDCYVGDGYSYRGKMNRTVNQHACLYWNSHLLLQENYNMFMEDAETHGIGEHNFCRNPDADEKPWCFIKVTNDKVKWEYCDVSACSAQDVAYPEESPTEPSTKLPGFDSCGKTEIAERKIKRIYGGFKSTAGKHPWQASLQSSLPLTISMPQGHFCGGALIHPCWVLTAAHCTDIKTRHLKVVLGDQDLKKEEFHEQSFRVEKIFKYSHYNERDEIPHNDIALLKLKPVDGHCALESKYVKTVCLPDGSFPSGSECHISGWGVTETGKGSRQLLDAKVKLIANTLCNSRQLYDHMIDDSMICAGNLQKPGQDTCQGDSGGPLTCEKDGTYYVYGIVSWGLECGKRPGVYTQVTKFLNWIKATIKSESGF

CRGAMWMYKRC [NNKC9/41]
FSAP–alpha2-antiplasmin complex formation: weaker than histones; also recorded: concentration-dependent effect
